From the OPERA property sets (Mansouri et al. 2018)

Conditions: not given
Work on CC(C)COC(=O)C(C)C yielded a boiling point of 149 °C, a log10 vapour pressure (mmHg) of 0.636 and a melting point of -80.7 °C. For CCCOC(C)=O, the boiling point was 102 °C, the log10 Henry constant (atm·m³/mol) was -3.66 and the log10 Koa was 3.17. The log10 vapour pressure (mmHg) was 1.56, the melting point was -93 °C and the ready biodegradability was “readily biodegradable”. With CCCCC(O)(Cn1cncn1)c1ccc(Cl)cc1Cl (stereo not drawn) the log10 vapour pressure (mmHg) was -6.87 and the melting point was 111 °C. For O=[N+]([O-])c1cccc(O)c1, the log10 Henry constant (atm·m³/mol) was -8.7, the melting point was 96.8 °C and the ready biodegradability was “readily biodegradable”. Work on CCC(C(=O)OC)c1ccccc1 (stereo not drawn) yielded a boiling point of 228 °C and a melting point of 77.5 °C. With O=[N+]([O-])c1cccc2ccccc12 the boiling point was 304 °C, the log10 Henry constant (atm·m³/mol) was -5.75 and the log10 vapour pressure (mmHg) was -3.32. The melting point was 61 °C. CCN(C#N)CC gave a boiling point of 188 °C and a melting point of -80.6 °C. With C#CCCCCCCCCCC the boiling point was 215 °C and the melting point was -19 °C. In the case of CCOC(=O)CO, the boiling point is reported as 160 °C. For Oc1ccccc1-c1nnco1, the melting point was 112 °C. In the case of CCOc1ccccc1O, the boiling point is reported as 217 °C and the melting point is reported as 29 °C. Work on CCc1cc2c(s1)N(C)C(=O)CN=C2c1ccccc1Cl yielded a melting point of 119 °C. For COB1OB(OC)OB(OC)O1, the boiling point was 130 °C and the melting point was 10 °C. With O=C1CCCCCC1c1ccccc1 (stereo not drawn) the melting point was 22.2 °C. For CC(C)c1ccc(CO)cc1, the boiling point was 249 °C, the melting point was 28 °C and the ready biodegradability was “readily biodegradable”. Work on CCCNCCC yielded a boiling point of 109 °C, a log10 Henry constant (atm·m³/mol) of -4.29 and a log10 Koa of 3.59. For the same molecule, the log10 vapour pressure (mmHg) was 1.3, the melting point was -63 °C and the ready biodegradability was “readily biodegradable”. Work on CCCCCCCOC=O yielded a boiling point of 178 °C. CCC(C)CC(C)(C)CC (stereo not drawn) gave a boiling point of 156 °C. ICCCCCCI gave a melting point of 9.5 °C. C=CCCCCCCCCCC gave a boiling point of 214 °C, a log10 vapour pressure (mmHg) of -0.797 and a melting point of -35.2 °C. For CC12CCC(C(=O)C1=O)C2(C)C (racemic), the melting point was 199 °C. For c1ccc(OB(Oc2ccccc2)Oc2ccccc2)cc1, the melting point was 99.5 °C. Work on O=C(O)CCS yielded a log10 vapour pressure (mmHg) of -1.3 and a melting point of 18 °C. In the case of Clc1cccc(-c2cccc(Cl)c2Cl)c1, the log10 Henry constant (atm·m³/mol) is reported as -3.8. C[C@]12CC[C@H](O)C[C@H]1CC[C@@H]1[C@@H]2CC[C@]2(C)[C@@H](C3=CC(=O)OC3)[C@@H](O)C[C@]12O gave a melting point of 234 °C. O=C(NC(=O)c1c(F)cccc1F)Nc1cc(Cl)c(Oc2ncc(C(F)(F)F)cc2Cl)c(Cl)c1 gave a log10 Henry constant (atm·m³/mol) of -11.7. Molecule Cc1cc(C)c(O)c(C(C)(C)C)c1 has a boiling point of 249 °C, a log10 vapour pressure (mmHg) of -1.35 and a melting point of 22.3 °C. The ready biodegradability was “not readily biodegradable”. CCC(CC)C(=O)O gave a boiling point of 194 °C, a log10 vapour pressure (mmHg) of -0.726 and a melting point of -31.8 °C. For the same molecule, the ready biodegradability was “readily biodegradable”. CC=C(C)Br showed a boiling point of 99.8 °C. Work on O=C1C=CC(=O)N1c1ccccc1 yielded a melting point of 90.5 °C. Work on CC(=O)OC[C@H]1O[C@@H](n2ncc(=O)[nH]c2=O)[C@H](OC(C)=O)[C@@H]1OC(C)=O yielded a melting point of 100 °C. C=CC(F)(F)C(F)(F)C(F)(F)C(F)(F)C(F)(F)C(F)(F)F gave a boiling point of 104 °C. In the case of CCN(CC)CCNc1ccc(CO)c2sc3ccccc3c(=O)c12, the melting point is reported as 102 °C. Cc1c(N)cccc1N showed a boiling point of 260 °C, a log10 vapour pressure (mmHg) of -2.61 and a melting point of 106 °C. With Cc1cc(C(=O)NNCc2ccccc2)no1 the melting point was 106 °C. For Nc1nc(N)nc(-c2cc(Cl)ccc2Cl)n1, the melting point was 268 °C. CCCCCCCCCCCCCC1CCCCC1 showed a boiling point of 346 °C, a log10 vapour pressure (mmHg) of -5.04 and a melting point of 18.5 °C. With O=C(O)c1cccnc1C(=O)O the melting point was 228 °C and the ready biodegradability was “readily biodegradable”. In the case of O=c1cccc2n1CC1CNCC2C1 (stereo not drawn), the melting point is reported as 152 °C. For C1CCCCC1, the boiling point was 80.7 °C, the log10 Henry constant (atm·m³/mol) was -0.824 and the log10 Koa was 2.74. For the same molecule, the log10 biodegradation half-life (days) was 1.7, the log10 vapour pressure (mmHg) was 1.99 and the melting point was 6.6 °C. The ready biodegradability was “not readily biodegradable”. Work on Nc1ccccc1C(F)(F)F yielded a boiling point of 187 °C and a melting point of 35.5 °C. Work on CNC(=O)Nc1ccc(Cl)c(Cl)c1 yielded a log10 Koc (L/kg) of 2.46. Work on CCCCCCCCCCCCC1CCCCC1 yielded a boiling point of 331 °C and a melting point of 12.5 °C. In the case of N[C@@H](CC(=O)O)C(=O)O (racemic), the melting point is reported as 272 °C. Clc1ccc2ccccc2c1 gave a boiling point of 256 °C, a log10 Henry constant (atm·m³/mol) of -3.49 and a log10 Koa of 5.8. The log10 vapour pressure (mmHg) was -1.91 and the melting point was 61 °C. Molecule CCCCCCCCCCCCCCCCCc1ccccc1 has a boiling point of 397 °C and a melting point of 32 °C. For Nc1ccc(O)cc1, the boiling point was 284 °C, the log10 vapour pressure (mmHg) was -4.4 and the melting point was 188 °C. The ready biodegradability was “readily biodegradable”. CCNC(C)C gave a boiling point of 69.6 °C. In the case of CC#CCCCC, the boiling point is reported as 112 °C. COC(=O)CCC#N showed a boiling point of 211 °C. O=C(CCl)N1CCOCC1 gave a melting point of 37 °C. Cc1cc(C)cc(OCC2CNC(=O)O2)c1 (stereo not drawn) showed a melting point of 122 °C. C[Si]1(C)O[Si](C)(C)O[Si](C)(C)O[Si](C)(C)O[Si](C)(C)O[Si](C)(C)O1 gave a boiling point of 245 °C, a log10 vapour pressure (mmHg) of -1.65 and a melting point of -3 °C. Work on CCOC(=O)c1ncn2c1CN(C)C(=O)c1cc(F)ccc1-2 yielded a melting point of 202 °C. In the case of C=CCCC(=O)O, the boiling point is reported as 188 °C and the melting point is reported as -22.5 °C. For CC(C)(O)C(Cl)(Cl)Cl, the boiling point was 167 °C, the melting point was 97 °C and the ready biodegradability was “not readily biodegradable”. In the case of C/C=C(\C)C(=O)OC, the boiling point is reported as 139 °C. S=C(Cl)Cl showed a boiling point of 73 °C. O=C[C@H](O)CO gave a melting point of 145 °C. With NC(=O)OCCCc1ccccc1 the melting point was 102 °C. CC(C)S(=O)(=O)O showed a melting point of -37 °C. Molecule C=C[C@@H]1C2=CCOC(=O)C2=CO[C@H]1O[C@@H]1O[C@H](CO)[C@@H](O)[C@H](O)[C@H]1O has a melting point of 191 °C. For O=Cc1c[nH]c2ccccc12, the melting point was 196 °C. N#C[S-].[NH4+] gave a melting point of 150 °C. For CCc1cc(C(C)(C)C)c(O)c(C(C)(C)C)c1, the boiling point was 272 °C, the melting point was 44 °C and the ready biodegradability was “not readily biodegradable”. For Cc1ncc(CO)c(N)n1, the melting point was 198 °C. O=C1c2c(O)cccc2Cc2cccc(O)c21 showed a melting point of 179 °C. Clc1cc(Cl)c(Cl)c(-c2cc(Cl)cc(Cl)c2Cl)c1 showed a log10 Koc (L/kg) of 6.48. COC(=O)Cc1ccccc1 gave a boiling point of 216 °C. FC1(F)C(F)(F)C(F)(F)C2(F)C(F)(F)C(F)(F)C(F)(F)C(F)(F)C2(F)C1(F)F (stereo not drawn) showed a melting point of -10 °C. Molecule CN1C(=O)CCS(=O)(=O)C1c1ccc(Cl)cc1 (stereo not drawn) has a melting point of 116 °C. Molecule NC(=O)Oc1ccccc1 has a melting point of 150 °C. Sc1ccc(Cl)cc1 gave a boiling point of 206 °C and a melting point of 61 °C. CCC(C)(C)N showed a boiling point of 77 °C and a melting point of -105 °C. Work on CC[N+](C)(C)CCOC(=O)CCC(=O)OCC[N+](C)(C)CC.[Br-].[Br-] yielded a melting point of 158 °C. For Cc1cc(C)c(O)cc1C, the boiling point was 232 °C, the log10 vapour pressure (mmHg) was -2.17 and the melting point was 72 °C. In the case of CC=CC(C)C, the boiling point is reported as 58.8 °C and the melting point is reported as -130 °C. For O=C1c2ccccc2C(=O)N1SC(F)(Cl)Cl, the ready biodegradability was “not readily biodegradable”. In the case of CCCCc1ccc(C=O)cc1, the ready biodegradability is reported as “not readily biodegradable”. OCCCCCCCCCCF gave a melting point of 22 °C. OCCCc1ccncc1 gave a boiling point of 289 °C and a melting point of 37 °C. Cc1ccc2c(c1)CCCC2(C)C showed a boiling point of 240 °C. Work on CCOS(=O)(=O)c1ccc(C)cc1 yielded a melting point of 34.5 °C. In the case of O=C1c2ccccc2C(=O)c2c(O)c(O)cc(O)c21, the melting point is reported as 259 °C. In the case of C[C@H](CCC(=O)O)[C@H]1CC[C@H]2[C@@H]3CC[C@@H]4C[C@H](O)CC[C@]4(C)[C@H]3CC[C@]12C, the melting point is reported as 186 °C. COC(=O)C(=O)Cl showed a boiling point of 119 °C. Molecule Nc1ccccc1CO has a boiling point of 273 °C and a melting point of 83.5 °C. For CNC(=O)Oc1ccc(N(C)C)c(C)c1, the log10 Koc (L/kg) was 2, the melting point was 93.5 °C and the ready biodegradability was “readily biodegradable”. Molecule CCCC(CC)C(C)C (stereo not drawn) has a boiling point of 138 °C. Work on CC(C)(Oc1ccc(Cl)cc1)C(=O)OCCCOC(=O)C(C)(C)Oc1ccc(Cl)cc1 yielded a melting point of 52 °C. CCCC(C)(C)O gave a boiling point of 121 °C, a log10 vapour pressure (mmHg) of 0.934 and a melting point of -103 °C. FC(F)=CCl gave a boiling point of -18.5 °C, a log10 vapour pressure (mmHg) of 3.55 and a melting point of -138 °C. C=CC1(C(C)CCC)C(=O)NC(=O)NC1=O (stereo not drawn) showed a melting point of 91 °C. For CCCC(C)c1ccccc1 (stereo not drawn), the boiling point was 199 °C. For Cn1cnc2ncnc-2c1N, the log10 vapour pressure (mmHg) was -11.8. For CON, the boiling point was 49.5 °C and the log10 vapour pressure (mmHg) was 2.46. O=C(c1ccccc1)C(Cl)Cl gave a boiling point of 249 °C and a melting point of 20.5 °C. In the case of CC(C)COC(N)=O, the boiling point is reported as 207 °C and the melting point is reported as 67 °C. With COC(=O)C(Cl)Cl the boiling point was 143 °C, the log10 vapour pressure (mmHg) was 0.654 and the melting point was -51.9 °C. For O=C(O)c1cc2ccccc2cc1O, the melting point was 222 °C and the ready biodegradability was “not readily biodegradable”. Molecule COC(=O)c1ccccc1OC(C)=O has a melting point of 51.5 °C. CCC(O)(CC)C(C)C showed a boiling point of 160 °C. Clc1ccc(C2(Cn3cncn3)CC(Br)CO2)c(Cl)c1 (stereo not drawn) showed a log10 vapour pressure (mmHg) of -7.52 and a melting point of 84 °C. CCCCCCCCCCCCCCCCCCOCC(O)CO (stereo not drawn) gave a melting point of 70.5 °C.

Same assay, conditions: fish
Work on O=[N+]([O-])c1cccc(O)c1 yielded a log10 BCF of 1.4 and a log10 biotransformation half-life (days) of -0.49. With C=CCCCCCCCCCC the log10 biotransformation half-life (days) was 0.83. C1CCCCC1 gave a log10 BCF of 1.92 and a log10 biotransformation half-life (days) of -0.66. For Clc1ccc2ccccc2c1, the log10 BCF was 3.63. With C[Si]1(C)O[Si](C)(C)O[Si](C)(C)O[Si](C)(C)O[Si](C)(C)O[Si](C)(C)O1 the log10 biotransformation half-life (days) was 2.34. For CC(C)(O)C(Cl)(Cl)Cl, the log10 BCF was 0.23. CCc1cc(C(C)(C)C)c(O)c(C(C)(C)C)c1 showed a log10 BCF of 3.46 and a log10 biotransformation half-life (days) of 0.86. With Cc1ccc2c(c1)CCCC2(C)C the log10 biotransformation half-life (days) was 0.83. Molecule O=C(O)c1cc2ccccc2cc1O has a log10 BCF of 0.6.
